Source: patent US20120100073A1, “PET RADIOTRACERS FOR IMAGING FATTY ACID METABOLISM AND STORAGE” (WASHINGTON UNIVERSITY, priority 2009, published 2012)

Columns and labels:
[1] = test system: β-oxidation; conditions: literature ref. 17, cited from earlier work
[2] = microPET imaging and myocardial time-activity curves (tracer kinetics) in a fed rat; assay type: in vivo
Experimental: Animal Preparation. All animal procedures are conducted in compliance with the guidelines for the care and use of research animals established by the Animal Studies Committee of Washington University. Animal preparation is performed as described previously.^24-26 Rats are housed in metabolism cages and anesthetized by inhalation of […] isoflurane administered via an induction chamber. Anesthesia can be maintained throughout the imaging session by delivering 1%-1.5% isoflurane via a custom-designed nose cone. Venous access is via the right jugular vein. Body temperature can be maintained using a circulating water blanket and a heat lamp. Heart and respiration rates can be monitored throughout the process.
PET Acquisition. The animals can be secured in a custom-designed acrylic restraining device and placed inside the field of view of the small-animal imaging PET scanner. Imaging acquisition starts Ss after a bolus injection of tracer via the right jugular catheter. The imaging protocol consists of dynamic acquisition of microPET images of ^11C-palmitate (5-7mCI) followed by ^18F-FAA or by ^18F-VLDL (5-7mCi) alone. Dynamic mage acquisition during ^11C-palmitate and either ^18F-FAA or ^18F-FAA-VLDL can be 30 and 60 min, respectively. The total time of the imaging session can be ˜3 hrs. Three whole-blood arterial samples are collected throughout the study to measure whole blood glucose (5 μL), free fatty acid (20 μL), and insulin (5 μL) levels to confirm the metabolic state of the animals,
Image Processing/Analysis. Dynamic images can be reconstructed using filtered backprojection with a 2.5 zoom on the heart and 40 frames per imaging session. The input function is reconstructed by applying the hybrid image-blood-sampling algorithm as described previously.^25 A myocardial region of interest is placed to generate a myocardial time-activity curve (TAC). The ^18F-FAA and ^18F-FAA-VLDL blood and myocardial TACs can be compared with the ^11C-palmitate TACs for both defiing characteristics (e.g., height and shape) as well as similar kinetics based exponential curve-fitting algorithms. […]

[3] = previous studies; rapid phase = oxidation, slow phase = storage; cited from earlier work

Structure (SMILES): CCCC([18F])CCCCCCCSCCCCC(=O)O (racemic) [FTHA, 14-(R,S)-^18F-fluoro-6-thiaheptadecanoic acid]
- uptake and retention versus inhibition of β-oxidation by hypoxia [1]: insensitive to the inhibition of β-oxidation by hypoxia

Structure (SMILES): O=C(O)CCSCCCCCCCCCCCC[18F] [FTP, ^18F-fluoro-thia-palmitate]
- deposition versus β-oxidation ([1]; normal oxygenation and hypoxic conditions): proportional to β-oxidation under normal oxygenation and hypoxic conditions

Structure (SMILES): CCCCCCCCCCCCCCC[11C](=O)O [^11C-palmitate]
- myocardial tracer uptake and washout pattern ([2]; blood and myocardial TACs, fed rat): significant tracer uptake with rapid bi-phasic washout
- tracer clearance late after injection ([2]; blood and myocardium, up to 60 mins post-tracer injection): tracer increased in both, blood and myocardium, 25 mins post tracer injection
- washout kinetics from heart [3]: biphasic washout kinetics from heart

Structure (SMILES): O=C(O)CCCCCCCCCCCCCCc1ccc(OCC[18F])cc1 [^18F-FAA]
- tracer clearance late after injection ([2]; rat, in vivo): still prevalent at 60 mins post-tracer injection

Structure (SMILES): O=C(O)CCCCCCCCCCCCCCc1ccc(I)cc1 [^123I-lPPA, 15-(p-iodophenyl)-pentadecanoic acid]
- washout kinetics from heart [3]: biphasic washout kinetics from heart
